{"source": "paper PMC4310350", "about": "(Drug Design, Development and Therapy, 2015)", "key": {"OAT3": {"target": "T1, OAT3 (Homo sapiens, UniProt Q8TCC7)", "T1 sequence (Q8TCC7 1-542)": "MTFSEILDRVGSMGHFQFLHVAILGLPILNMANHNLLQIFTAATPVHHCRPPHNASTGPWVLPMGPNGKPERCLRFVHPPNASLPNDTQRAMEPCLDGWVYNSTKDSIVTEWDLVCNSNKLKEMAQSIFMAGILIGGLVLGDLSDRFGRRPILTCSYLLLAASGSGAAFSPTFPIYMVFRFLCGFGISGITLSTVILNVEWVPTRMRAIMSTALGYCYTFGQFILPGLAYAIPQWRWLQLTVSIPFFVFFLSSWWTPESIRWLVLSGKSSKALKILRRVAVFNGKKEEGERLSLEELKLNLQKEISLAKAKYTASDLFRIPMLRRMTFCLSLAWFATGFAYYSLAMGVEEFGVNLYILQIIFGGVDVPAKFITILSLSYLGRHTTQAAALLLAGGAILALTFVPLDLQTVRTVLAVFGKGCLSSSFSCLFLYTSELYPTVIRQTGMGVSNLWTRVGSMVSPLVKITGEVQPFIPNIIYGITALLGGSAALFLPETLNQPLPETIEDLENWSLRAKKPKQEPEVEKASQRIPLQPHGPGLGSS", "assay": "Uptake in HEK293 cells overexpressing OAT3", "format": "in vitro ADME"}, "OATP1B1": {"target": "T2, OATP1B1 (Homo sapiens, UniProt Q9Y6L6)", "T2 sequence (Q9Y6L6 1-691)": "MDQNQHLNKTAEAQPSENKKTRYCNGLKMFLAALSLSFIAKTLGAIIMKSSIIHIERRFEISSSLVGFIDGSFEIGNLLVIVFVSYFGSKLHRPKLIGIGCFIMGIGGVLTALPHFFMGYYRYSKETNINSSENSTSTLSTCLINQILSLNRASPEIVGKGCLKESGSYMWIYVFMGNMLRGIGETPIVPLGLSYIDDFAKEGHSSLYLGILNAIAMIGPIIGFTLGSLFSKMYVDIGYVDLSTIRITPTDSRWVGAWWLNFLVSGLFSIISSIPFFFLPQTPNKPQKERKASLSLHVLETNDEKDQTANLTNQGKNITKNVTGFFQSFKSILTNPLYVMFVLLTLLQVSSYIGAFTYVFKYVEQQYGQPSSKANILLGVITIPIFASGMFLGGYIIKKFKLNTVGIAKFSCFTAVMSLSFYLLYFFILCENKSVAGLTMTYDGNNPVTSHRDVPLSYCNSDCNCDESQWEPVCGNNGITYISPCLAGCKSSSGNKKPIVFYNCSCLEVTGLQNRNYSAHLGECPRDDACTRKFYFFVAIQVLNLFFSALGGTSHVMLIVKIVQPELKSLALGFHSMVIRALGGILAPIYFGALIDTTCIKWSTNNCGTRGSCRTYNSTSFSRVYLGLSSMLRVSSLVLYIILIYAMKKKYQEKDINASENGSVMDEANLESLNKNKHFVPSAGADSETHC", "assay": "Uptake in HEK293 cells overexpressing OATP1B1", "format": "in vitro ADME", "settings": "OATP1B1-mediated uptake"}, "OCT1 [1]": {"target": "T3, OCT1 (Homo sapiens, UniProt O15245)", "T3 sequence (O15245 1-554)": "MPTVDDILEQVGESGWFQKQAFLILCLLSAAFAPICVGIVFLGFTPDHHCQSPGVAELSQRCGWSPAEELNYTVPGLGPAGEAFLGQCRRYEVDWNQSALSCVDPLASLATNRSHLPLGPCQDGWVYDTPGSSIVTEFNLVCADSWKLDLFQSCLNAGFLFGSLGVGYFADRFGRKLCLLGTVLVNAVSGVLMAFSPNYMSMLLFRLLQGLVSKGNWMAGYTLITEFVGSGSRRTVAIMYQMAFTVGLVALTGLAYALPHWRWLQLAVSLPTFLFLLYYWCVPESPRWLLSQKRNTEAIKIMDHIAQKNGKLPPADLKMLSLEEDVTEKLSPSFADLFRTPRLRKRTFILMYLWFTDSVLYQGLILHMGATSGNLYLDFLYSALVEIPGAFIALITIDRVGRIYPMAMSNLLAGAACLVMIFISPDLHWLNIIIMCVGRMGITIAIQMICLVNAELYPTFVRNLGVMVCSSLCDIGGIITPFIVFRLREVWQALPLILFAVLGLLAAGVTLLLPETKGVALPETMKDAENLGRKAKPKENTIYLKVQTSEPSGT", "assay": "Uptake in HEK293 cells overexpressing OCT1", "format": "in vitro ADME", "settings": "OCT1, influx"}, "P-gp [2]": {"target": "T4, P-gp (Homo sapiens, UniProt P08183)", "T4 sequence (P08183 whole entry)": "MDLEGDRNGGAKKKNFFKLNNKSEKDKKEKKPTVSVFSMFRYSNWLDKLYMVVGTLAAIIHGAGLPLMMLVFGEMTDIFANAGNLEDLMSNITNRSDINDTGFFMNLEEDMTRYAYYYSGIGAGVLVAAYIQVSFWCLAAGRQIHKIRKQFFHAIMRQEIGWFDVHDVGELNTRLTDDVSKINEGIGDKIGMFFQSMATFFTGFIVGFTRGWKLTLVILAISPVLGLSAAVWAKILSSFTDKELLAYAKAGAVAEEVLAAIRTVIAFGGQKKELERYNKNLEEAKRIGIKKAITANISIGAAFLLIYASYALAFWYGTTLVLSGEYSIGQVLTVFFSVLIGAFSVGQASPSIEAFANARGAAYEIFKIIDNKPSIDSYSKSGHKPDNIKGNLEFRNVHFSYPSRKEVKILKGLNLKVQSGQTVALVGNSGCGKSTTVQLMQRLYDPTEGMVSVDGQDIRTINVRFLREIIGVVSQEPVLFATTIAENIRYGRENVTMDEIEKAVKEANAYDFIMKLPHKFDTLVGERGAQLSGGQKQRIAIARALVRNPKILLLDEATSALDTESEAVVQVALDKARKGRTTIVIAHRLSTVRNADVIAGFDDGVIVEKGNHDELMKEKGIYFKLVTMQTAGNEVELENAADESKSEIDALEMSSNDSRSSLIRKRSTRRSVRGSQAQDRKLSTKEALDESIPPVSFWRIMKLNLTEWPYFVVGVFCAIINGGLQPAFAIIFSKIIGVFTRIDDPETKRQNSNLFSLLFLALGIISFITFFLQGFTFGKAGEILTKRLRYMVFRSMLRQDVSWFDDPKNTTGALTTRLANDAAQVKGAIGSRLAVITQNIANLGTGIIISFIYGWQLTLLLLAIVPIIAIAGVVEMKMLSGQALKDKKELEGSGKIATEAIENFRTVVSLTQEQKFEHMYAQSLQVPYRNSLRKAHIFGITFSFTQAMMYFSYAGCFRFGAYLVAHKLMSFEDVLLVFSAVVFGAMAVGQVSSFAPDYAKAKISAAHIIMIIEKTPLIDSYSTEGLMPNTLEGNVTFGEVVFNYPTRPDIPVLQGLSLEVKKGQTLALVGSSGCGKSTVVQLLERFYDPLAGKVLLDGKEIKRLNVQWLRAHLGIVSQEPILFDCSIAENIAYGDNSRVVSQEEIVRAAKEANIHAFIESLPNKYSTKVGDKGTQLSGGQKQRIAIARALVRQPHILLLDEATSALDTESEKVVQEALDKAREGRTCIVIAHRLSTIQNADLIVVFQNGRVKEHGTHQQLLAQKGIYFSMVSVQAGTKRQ", "assay": "A-to-B and B-to-A transport in LLC-PK1 cells overexpressing P-gp", "format": "in vitro ADME", "settings": "P-gp (MDR1), efflux"}, "OAT1": {"target": "T5, OAT1 (Homo sapiens, UniProt Q4U2R8)", "T5 sequence (Q4U2R8 1-563)": "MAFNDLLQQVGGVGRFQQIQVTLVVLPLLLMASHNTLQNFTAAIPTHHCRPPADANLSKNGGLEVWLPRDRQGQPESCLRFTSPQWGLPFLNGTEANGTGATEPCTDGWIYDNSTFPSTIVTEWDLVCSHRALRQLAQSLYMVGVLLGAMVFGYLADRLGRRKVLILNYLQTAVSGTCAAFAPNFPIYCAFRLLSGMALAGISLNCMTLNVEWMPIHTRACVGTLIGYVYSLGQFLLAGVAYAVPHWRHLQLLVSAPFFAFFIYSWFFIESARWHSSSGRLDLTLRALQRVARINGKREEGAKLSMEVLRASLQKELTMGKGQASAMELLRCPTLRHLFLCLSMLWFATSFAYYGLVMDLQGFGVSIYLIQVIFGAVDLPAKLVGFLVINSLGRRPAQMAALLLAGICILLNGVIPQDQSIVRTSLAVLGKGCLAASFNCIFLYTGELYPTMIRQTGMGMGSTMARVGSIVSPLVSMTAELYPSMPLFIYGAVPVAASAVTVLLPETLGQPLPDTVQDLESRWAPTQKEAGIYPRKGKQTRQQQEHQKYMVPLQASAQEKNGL", "assay": "Inhibitory effect of catalposide on OAT1 transport activity", "format": "in vitro ADME", "settings": "probe 1 μM PAH, catalposide 0–100 μM"}, "OCT1 [3]": {"target": "T3, OCT1", "assay": "Inhibitory effect of catalposide on OCT1 transport activity", "format": "in vitro ADME", "settings": "probe 0.1 μM [3H]MPP+, catalposide 0–100 μM"}, "P-gp [4]": {"target": "T4, P-gp", "assay": "Inhibitory effect of catalposide on P-gp transport activity", "format": "in vitro ADME", "settings": "probe 0.1 μM [3H]digoxin, catalposide 1–100 μM"}, "[5]": {"assay": "Pharmacokinetics in rats after intravenous administration", "format": "in vivo", "settings": "from the cited clearance values"}, "[6]": {"settings": "3-hour incubation in rat plasma; cited from earlier work"}, "[7]": {"test_system": "suppression of cytokines, antioxidative effect, and PPAR-α activation", "settings": "in vitro cell system; cited from earlier work"}, "[8]": {"test_system": "colitis induced by trinitrobenzene sulfonic acid", "settings": "mice, cited from earlier work"}}, "note": "“Also recorded” adds a separate entry of the source.", "data": [{"smiles": "O=C(O[C@H]1[C@@H]2C=CO[C@@H](O[C@@H]3O[C@H](CO)[C@@H](O)[C@H](O)[C@H]3O)[C@@H]2[C@@]2(CO)O[C@@H]12)c1ccc(O)cc1", "note": "[catalposide]", "values": [{"measurement": "Clint for OAT3 relative to OATP1B1", "setting": "OAT3; OAT3 vs OATP1B1", "result": 31.8, "unit": "fold"}, {"measurement": "Clint for OAT3 relative to OATP1B3", "setting": "OAT3; OAT3 vs OATP1B3", "result": 32.7, "unit": "fold"}, {"measurement": "Hill coefficient n", "setting": "OATP1B1", "result": "~1"}, {"measurement": "Substrate", "setting": "OCT1 [1]", "result": "not involved"}, {"measurement": "Substrate", "setting": "P-gp [2]", "result": "not involved; also recorded: not a substrate"}, {"measurement": "Inhibitor", "setting": "OAT1", "result": "did not significantly inhibit"}, {"measurement": "Inhibitor", "setting": "OCT1 [3]", "result": "did not significantly inhibit"}, {"measurement": "Inhibitor", "setting": "P-gp [4]", "result": "did not significantly inhibit"}, {"measurement": "Share cleared by nonrenal clearance", "setting": "[5]", "result": "approximately 90%"}, {"measurement": "Stability", "setting": "[6]", "result": "remained stable"}, {"measurement": "Effective concentration", "setting": "[7]", "result": "0.2 to 4", "unit": "µM"}, {"measurement": "Histologic toxicity", "setting": "[8]; 1–2.5 mg/kg", "result": "without histologic toxicity"}, {"measurement": "Severity of colitis", "setting": "[8]; dose 0.5 mg/kg", "result": "reduced the severity of colitis"}]}]}
